# Laboratory results from US20260284018A1, “DUAL INHIBITORS OF DYRK1A AND 5-HT2 FOR TREATING A BRAIN DISORDER” (THE REGENTS OF THE UNIVERSITY OF CALIFORNIA, priority 2023, published 2026).
# Legend:
# [1] = biological target: T1, human recombinant 5-HT2AR (Homo sapiens, UniProt P28223); test: IPOne HTRF assay, 5-HT2AR; assay type: cell-based; details: for antagonist activity at 5-HT2A, IP-One: antagonist mode
# T1 construct: host or cells: CHO-K1
# Procedure: IPOne Assays. The 5-HT2AR and 5-HT2CR IPOne HTRF assays were performed at Epics Therapeutics S.A. (Belgium, FAST-0505I) using conventional methods. Briefly, CHO-K1 cells expressing human recombinant 5-HT2AR or 5-HT2CR grown to mid-log phase in culture media without antibiotics were detached with PBS-EDTA, centrifuged, and resuspended in medium without antibiotics buffer. Then, 20,000 cells were distributed in a 96-well plate and incubated overnight at 37° C. with 5% CO2. For agonist testing, the medium was removed and 20 μL of assay buffer plus 20 μL of test compound or reference agonist (α-Me-5-HT) was added to each well. The plate was incubated for 60 min at 37° C. with 5% CO2. For antagonist testing, the medium was removed and 20 μL of assay buffer plus 20 μL of test compound or reference antagonist (ketanserin) was added to each well. The plate was incubated for 60 min at 37° C. with 5% CO2. After addition of the lysis buffer containing IP1-d2 and anti-IP1 cryptate detection reagents, plates were incubated for 1 h at room temperature and fluorescence ratios were measured according to the manufacturer's specifications using the HTRF kit.
# C57BL/6J mice = test: Head-twitch response; assay type: in vivo; details: for head-twitch response: intraperitoneal, up to 30 mg/kg
# Procedure: Animals. Female C57BL/6J mice used in the head twitch response and locomotion assays, and Sprague Dawley dams used to generate embryonic cultures were obtained from Jackson Laboratory (Sacramento, CA). Mice were housed in a temperature- and humidity-controlled room maintained on a 12 h light/dark cycle in groups of four to five (same sex). Animals weighed between 17 and 30 g at the time of the experiments. All experimental procedures involving rodents were approved by the UC Davis Institutional Animal Care and Use Committee (IACUC) and adhered to principles described in the National Institutes of Health Guide for the Care and Use of Laboratory Animals. The University of California, Davis is accredited by the Association for Assessment and Accreditation of Laboratory Animal Care International (AAALAC).
# Head-Twitch Response and Locomotion. Mice (9-10 weeks old) were injected intraperitoneally with compounds dissolved in 10% Kolliphor® EL (Sigma) and 10% DMSO in 0.9% saline (injection volume 5 mL/kg) or vehicle, placed in an empty cage, and filmed for 10 min. Locomotion was quantified using ANYmaze Video Tracking System, version 7.07 (Stoelting Co.). After 10 min, mice were then injected with 5-MeO-DMT dissolved in 0.9% saline (10 mg/kg, injection volume 5 mL/kg) or vehicle and filmed for 20 min. Cages were cleaned with 70% ethanol between experiments. […] The last 20 min of each video were scored by one trained observer blinded to the treatment conditions.
# [2] = tested on: embryonic rat cortical cultures; test: Total neurite length in embryonic rat cortical cultures; assay type: cell-based; details: embryonic rat cortical cultures (DIV=0), treated for 72 h
# Procedure: Each data point represents a well average from two independent cultures. Data are represented as mean f SEM. *p<0.05, **p<0.01, ***p<0.001, ****p<0.0001, as compared to the vehicle control following a one-way ANOVA with Dunnett's post hoc test. VEH=vehicle; DON=250 nM donepezil; OKA=30 nM okadaic acid.
# T1 sequence (P28223 whole entry): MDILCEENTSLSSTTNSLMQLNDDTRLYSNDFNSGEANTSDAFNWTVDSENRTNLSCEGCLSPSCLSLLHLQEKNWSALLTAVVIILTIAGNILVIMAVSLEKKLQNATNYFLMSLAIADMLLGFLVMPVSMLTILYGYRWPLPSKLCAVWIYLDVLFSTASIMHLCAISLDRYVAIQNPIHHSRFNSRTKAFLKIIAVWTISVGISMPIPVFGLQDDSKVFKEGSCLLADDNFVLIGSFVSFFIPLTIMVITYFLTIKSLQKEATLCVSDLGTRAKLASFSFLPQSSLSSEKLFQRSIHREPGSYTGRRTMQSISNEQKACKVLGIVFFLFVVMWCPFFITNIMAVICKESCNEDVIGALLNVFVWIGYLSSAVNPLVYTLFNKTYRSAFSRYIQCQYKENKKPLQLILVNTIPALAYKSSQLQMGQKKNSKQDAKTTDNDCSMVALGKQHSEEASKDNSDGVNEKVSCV
compound,measurement,setting,value
"COc1ccc2c(c1)N(CCN(C)C)/C(=C/C(C)=O)S2.O=C(O)/C=C/C(=O)O [HTW_B_14 fumarate, (Z)-1-(3-(2-(dimethylamino)ethyl)-5-methoxybenzo[d]thiazol-2(3H)-ylidene)propan-2-one Fumarate Salt (1:1)]","activation of 5-HT2A, IP-One agonist mode",[1],no activation
same,"antagonist activity at 5-HT2A, IP-One",[1],antagonist activity
same,head-twitch response,C57BL/6J mice,failed to produce a head-twitch response
same,average total neurite length per neuron,[2],significantly increase average total neurite length per neuron
"COc1ccc2c3ccnc(C)c3n(CCN(C)C)c2c1.O=C(O)/C=C/C(=O)O [HTW_A_8 fumarate, 2-(7-methoxy-1-methyl-9H-pyrido[3,4-b]indol-9-yl)-N,N-dimethylethan-1-amine Fumarate Salt (2:3)]","activation of 5-HT2A, IP-One agonist mode",[1],no activation
same,"antagonist activity at 5-HT2A, IP-One",[1],antagonist activity
same,dampening of head-twitch response produced by 5-MeO-DMT,"C57BL/6J mice; 30 mg/kg pretreatment, 10 mg/kg 5-MeO-DMT",sufficient to dampen the head-twitch response
same,head-twitch response,C57BL/6J mice,failed to produce a head-twitch response
same,average total neurite length per neuron,[2],significantly increase average total neurite length per neuron
